Laboratory results reported in patent US5385842A, “Anthraquinones as inhibitors of sulfide production from sulfate-reducing bacteria” (E. I. Du Pont de Nemours and Company, priority 1993, dated 1995).
Structures can show the parent of a compound that is named as a salt.

Test system: Desulfovibrio desulfuricans G100A
Assay: microbe, parasite or virus in culture
Format: cell-based
Conditions: Desulfovibrio desulfuricans, G100A, read-out: % Inhib. (inhibition of sulfide production)

`Cc1ccc2c(c1[N+](=O)[O-])C(=O)c1ccccc1C2=O` [2-Methyl-1-nitroanthraquinone] showed an inhibition at 30 ppm of 50%.
With `Cc1ccc2c(c1)C(=O)c1ccccc1C2=O` [2-Methylanthraquinone] the inhibition at 30 ppm was 10.4%.
For `O=C1c2ccccc2C(=O)c2c(O)c(S(=O)(=O)O)c(Oc3ccc(S(=O)(=O)O)cc3)c(O)c21` [2-Phenoxy quinizarin-3,4'-disulfonic acid, di K salt], the inhibition at 10 ppm was 28.1%.
`CCC(=O)Nc1ccc2c(c1)C(=O)c1ccccc1C2=O` [2-Propionamidoanthraquinone] showed an inhibition at 30 ppm of 10.4%.
Work on `CC(C)(C)c1ccc2c(c1)C(=O)c1ccccc1C2=O` [2-tert-butylanthraquinone] yielded an inhibition at 30 ppm of 5.2%.
`O=C(Nc1ccc(Nc2ccc(NC(=O)c3ccccc3)c3c2C(=O)c2ccccc2C3=O)c2c1C(=O)c1ccccc1C2=O)c1ccccc1` [4,4'-Dibenzamido-1,1'-dianthrimide, N,N'-[Iminobis(9,10-dihydro-9,10-dioxo-4,1-anthracenediyl)]bisbenzamide] gave an inhibition at 30 ppm of 5.2%.
`O=C(Nc1cccc2c1C(=O)c1cccc(Nc3cccc4c3C(=O)c3cccc(NC(=O)c5ccccc5)c3C4=O)c1C2=O)c1ccccc1` [4,5'-Dibenzamido-1,1'-dianthrimide, N,N'-[Iminobis(9,10-dihydro-9,10-dioxo-5,1-anthracenediyl)]bisbenzamide] showed an inhibition at 30 ppm of 0%.
`Nc1cccc2c1C(=O)c1cccc(Cl)c1C2=O` [5-Chloro-1-aminoanthraquinone] gave an inhibition at 10 ppm of 57.1%.
In the case of `O=C1c2cccc(S(=O)(=O)O)c2C(=O)c2cccc([N+](=O)[O-])c21` [5-Nitroanthraquinone-1-sulfonic acid, 9,10-Dihydro-5-nitro-9,10-dioxo-1-anthracenesulfonic acid], the inhibition at 10 ppm was 66%.
In the case of `O=C1c2cc(Cl)c(Cl)cc2C(=O)c2c(O)ccc(O)c21` [6,7-Dichloro-1,4-dihydroxyanthraquinone], the inhibition at 30 ppm was 5.7%.
Work on `O=c1c2ccccc2c(=O)c2c1cc(Cl)c1[nH]c3c([nH]c12)c(Cl)cc1c(=O)c2ccccc2c(=O)c13` [7,16-Dichloroindanthrone, 7,16-Dichloro-6,15-dihydro-5,9,14,18-anthrazinetetrone] yielded an inhibition at 10 ppm of 43.8%.
For `O=C1c2ccccc2C(=O)c2c(O)c(S(=O)(=O)O)cc(O)c21` [9,10-Dihydro-1,4-dihydroxy-9,10-dioxo-2-anthracenesulfonic acid], the inhibition at 30 ppm was 7.8%.
`O=C(O)c1cc2c(cc1C(=O)O)C(=O)c1ccccc1C2=O` [9,10-Dihydro-9,10-dioxo-2,3-anthracenedicarboxylic acid] was tested, and the inhibition at 30 ppm was 10%.
`O=C1c2ccc(S(=O)(=O)O)cc2C(=O)c2cc(S(=O)(=O)O)ccc21` [9,10-Dihydro-9,10-dioxo-2,7-anthracenedisulfonic acid, di Na salt] showed an inhibition at 30 ppm of 9.1%.
`O=C1c2c(O)c(O)c(S(=O)(=O)O)c(O)c2C(=O)c2c(O)c(O)c(S(=O)(=O)O)c(O)c21` [Acid alizarin blue BB, 9,10-Dihydro-1,3,4,5,7,8-hexahydroxy-9,10-dioxo-2,6-anthracenedisulfonic acid] was tested, and the inhibition at 30 ppm was 0%.
Work on `Nc1c(S(=O)(=O)O)cc(Nc2ccccc2)c2c1C(=O)c1ccccc1C2=O` [Acid blue 25, 1-Amino-9,10-dihydro-9,10-dioxo-4-(phenylamino)-2-anthracenesulfonic acid, Na salt] yielded an inhibition at 10 ppm of 26%.
Compound `CC(=O)Nc1ccc(Nc2cc(S(=O)(=O)O)c(N)c3c2C(=O)c2ccccc2C3=O)cc1` [Acid blue 40, 4-[[4-(Acetylamino)phenyl]amino]-1-amino-9,10-dihydro-9,10-dioxo-2-anthracenesulfonic acid, Na salt] has an inhibition at 10 ppm of 12.5%.
`CC(=O)N(C)c1ccc(Nc2cc(S(=O)(=O)O)c(N)c3c2C(=O)c2ccccc2C3=O)cc1` [Acid blue 41, 4-[[4-(Acetylmethylamino)phenyl]amino]-1-amino-9,10-dihydro-9,10-dioxo-2-anthracenesulfonic acid, Na salt] gave an inhibition at 10 ppm of 0%.
